In assay [1] the test system is E. coli strains with elevated MICs to Polymyxin B. The experiment in a line: MIC against strains with elevated MICs to Polymyxin B. The class given is cell-based, Escherichia coli. The note with it: Table 6D; for MIC E. coli 058: strain 058, elevated MIC to Polymyxin B; for MIC E. coli 059: strain 059, elevated MIC to Polymyxin B; for MIC E. coli 060: strain 060, elevated MIC to Polymyxin B; for MIC E. coli 061: strain 061, elevated MIC to Polymyxin B. A digest of the protocol: (§1)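 Values are modal MICs where compounds were tested repeatedly, otherwise the lower of duplicates agreeing within 2-fold, with greater variation rejected. Inoculum: isolated colonies from 18-24 h Mueller-Hinton agar, suspended directly to 0.5 McFarland.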

Assay [2] has as its system K. pneumoniae strains with elevated MICs to Polymyxin B. The assay is described as above. The class given is cell-based, Klebsiella pneumoniae. The settings on record: Table 6D; for MIC K. pneumoniae 062: strain 062, elevated MIC to Polymyxin B; for MIC K. pneumoniae 063: strain 063, elevated MIC to Polymyxin B; for MIC K. pneumoniae 064: strain 064, elevated MIC to Polymyxin B; for MIC K. pneumoniae 655: strain 655, elevated MIC to Polymyxin B. Put shortly: as §1

The subject of assay [3] is P. aeruginosa strains with elevated MICs to Polymyxin B. The assay is described as above. The note with it: Table 6D; for MIC P. aeruginosa 065: strain 065, elevated MIC to Polymyxin B; for MIC P. aeruginosa 066: strain 066, elevated MIC to Polymyxin B; for MIC P. aeruginosa 067: strain 067, elevated MIC to Polymyxin B. The class given is cell-based, Pseudomonas aeruginosa. The procedure: The inoculum was prepared by making a direct suspension of isolated colonies (selected from an 18-24 hour Mueller-Hinton agar plate) adjusted to the 0.5 McFarland standard. […] The assays were performed in duplicate. […] In cases where the duplicate values varied by less than 2-fold, the lower of the two values is reported. If a variation of greater than 2-fold was observed, the assay was considered non-valid. Several of the compounds were subjected to multiple tests, and where this is the case, the MIC reflects the modal value obtained.
The Further Synthesis Examples were tested against a range of Gram negative bacteria, and tested for HK-2 cell toxicity. All the worked examples, including the Synthesis and Further Synthesis Examples, were also tested against a range of Gram negative bacteria that are resistant to Polymyxin B (i.e. those strains where Polymyxin B has an elevated MIC value).

Assay [4] relates to A. baumanii strains with elevated MICs to Polymyxin B. The description is as above. The note with it: Table 6D; for MIC A. baumannii 053: strain 053, elevated MIC to Polymyxin B; for MIC A. baumannii 056: strain 056, elevated MIC to Polymyxin B; for MIC A. baumannii 068: strain 068, elevated MIC to Polymyxin B; for MIC A. baumannii 070: strain 070, elevated MIC to Polymyxin B. The assay is classed as cell-based, Acinetobacter baumannii. A digest of the protocol:
as §1

Setting [5] is: absence of a second agent, Table 6B.

Like-named read-outs stand apart in the source and are kept apart here. Some results are limits rather than exact numbers.

“5- isobutoxypiperidine- 3-carbonyl L- Thr-L-Dap- polymyxin B heptapeptide [Example D70]”: in assay [1], the “MIC E. coli 058” value turned out to be 4 micrograms/mL, the “MIC E. coli 059” value worked out at 8 micrograms/mL, the “MIC E. coli 060” value worked out at 4 micrograms/mL and the “MIC E. coli 061” value stood at 16 micrograms/mL. Moreover, in assay [2], the “MIC K. pneumoniae 062” value came to 64 micrograms/mL, the “MIC K. pneumoniae 063” value came out at 64 micrograms/mL, the “MIC K. pneumoniae 064” value stood at 6 micrograms/mL and the “MIC K. pneumoniae 655” value was 32 micrograms/mL. In assay [3], the “MIC P. aeruginosa 065” value was determined as 4 micrograms/mL, the “MIC P. aeruginosa 066” value was 16 micrograms/mL and the “MIC P. aeruginosa 067” value was greater than 256 micrograms/mL. Moreover, in assay [4], the “MIC A. baumannii 053” value is greater than 256 micrograms/mL, the “MIC A. baumannii 056” value was found to be 16 micrograms/mL, the “MIC A. baumannii 068” value is on record as 8 micrograms/mL and the “MIC A. baumannii 070” value is recorded as 32 micrograms/mL. Further, in the assay with E. coli (sole activity, Table 6C), the “MIC, E. coli ATCC 25922” value amounted to 0.125 micrograms/mL and the “MIC, E. coli NCTC 13441” value is on record as 0.125 micrograms/mL. For the same substance, the “MIC, K. pneumoniae ATCC 4352” value with K. pneumoniae (sole activity, Table 6C) is 0.06 micrograms/mL. Further, in the assay with P. aeruginosa (sole activity, Table 6C), the “MIC, P. aeruginosa ATCC 27853” value is 0.25 micrograms/mL and the “MIC, P. aeruginosa CCUG 59347” value was determined as 0.5 micrograms/mL. Besides, in the assay on A. baumannii (sole activity, Table 6C), the “MIC, A. baumannii ATCC BAA-747” value is recorded as 0.06 micrograms/mL and the “MIC, A. baumannii NCTC 13424” value is 0.125 micrograms/mL.
Regarding “(cis-5-octylpiperidine)- 3-carbonyl polymyxin B nonapeptide [Example D20]”, in assay [1], the “MIC E. coli 059” value amounted to 4 micrograms/mL, the “MIC E. coli 060” value was 16 micrograms/mL and the “MIC E. coli 061” value worked out at 32 micrograms/mL. Moreover, in assay [2], the “MIC K. pneumoniae 062” value was greater than 64 micrograms/mL, the “MIC K. pneumoniae 063” value was greater than 64 micrograms/mL, the “MIC K. pneumoniae 064” value was greater than 64 micrograms/mL and the “MIC K. pneumoniae 655” value is on record as greater than 64 micrograms/mL. Besides, in assay [3], the “MIC P. aeruginosa 066” value was 64 micrograms/mL and the “MIC P. aeruginosa 067” value is listed as greater than 64 micrograms/mL. For the same substance, in assay [4], the “MIC A. baumannii 053” value is on record as greater than 64 micrograms/mL, the “MIC A. baumannii 056” value was greater than 64 micrograms/mL, the “MIC A. baumannii 068” value is reported as 32 micrograms/mL and the “MIC A. baumannii 070” value worked out at 64 micrograms/mL. Further, in the assay with E. coli (setting [5]), the “MIC, E. coli ATCC 25922” value was 4 micrograms/mL and the “MIC, E. coli NCTC 13441” value is recorded as 4 micrograms/mL. Moreover, in the assay with K. pneumoniae (setting [5]), the “MIC, K. pneumoniae ATCC 4352” value stood at 8 micrograms/mL and the “MIC, K. pneumoniae ATCC BAA-2146” value is greater than 8 micrograms/mL. In the assay with P. aeruginosa (setting [5]), the “MIC, P. aeruginosa ATCC 27853” value is reported as 0.5 micrograms/mL and the “MIC, P. aeruginosa CCUG 59347” value is listed as 1 micrograms/mL. In the assay on A. baumannii (setting [5]), the “MIC, A. baumannii ATCC BAA-747” value is given as greater than 8 micrograms/mL and the “MIC, A. baumannii NCTC 13424” value is greater than 8 micrograms/mL.
For the substance “trans-4- octylpyrrolidine- 3-carbonyl L-Thr- L-Dap-polymyxin B heptapeptide [Example D89]”, in assay [1], the “MIC E. coli 058” value stood at 1 micrograms/mL, the “MIC E. coli 059” value is 1 micrograms/mL, the “MIC E. coli 060” value is 0.5 micrograms/mL and the “MIC E. coli 061” value is on record as 2 micrograms/mL. In addition, in assay [2], the “MIC K. pneumoniae 062” value was determined as 8 micrograms/mL, the “MIC K. pneumoniae 063” value came to 4 micrograms/mL, the “MIC K. pneumoniae 064” value is on record as 1 micrograms/mL and the “MIC K. pneumoniae 655” value is reported as 8 micrograms/mL. For the same substance, in assay [3], the “MIC P. aeruginosa 065” value is 0.5 micrograms/mL, the “MIC P. aeruginosa 066” value came out at 1 micrograms/mL and the “MIC P. aeruginosa 067” value is reported as 16 micrograms/mL. In assay [4], the “MIC A. baumannii 053” value turned out to be 8 micrograms/mL, the “MIC A. baumannii 056” value is on record as 4 micrograms/mL, the “MIC A. baumannii 068” value came to 0.5 micrograms/mL and the “MIC A. baumannii 070” value is listed as 0.5 micrograms/mL. Further, in the assay with E. coli (sole activity, Table 6C), the “MIC, E. coli ATCC 25922” value stood at 0.5 micrograms/mL and the “MIC, E. coli NCTC 13441” value was 0.125 micrograms/mL. The “MIC, K. pneumoniae ATCC BAA-2146” value against K. pneumoniae (sole activity, Table 6C) is on record as 0.5 micrograms/mL. Moreover, in the assay on P. aeruginosa (sole activity, Table 6C), the “MIC, P. aeruginosa ATCC 27853” value is on record as 0.5 micrograms/mL and the “MIC, P. aeruginosa CCUG 59347” value worked out at 1 micrograms/mL. In the assay on A. baumannii (sole activity, Table 6C), the “MIC, A. baumannii ATCC BAA-747” value worked out at 0.5 micrograms/mL and the “MIC, A. baumannii NCTC 13424” value came out at 0.5 micrograms/mL.
With “cis-5- (benzylcarbamoyl) piperidine-3- carbonyl L-Thr-L- Dap-polymyxin B heptapeptide [Example D75]”, in assay [1], the “MIC E. coli 058” value is reported as 4 micrograms/mL, the “MIC E. coli 059” value is on record as 8 micrograms/mL, the “MIC E. coli 060” value was 4 micrograms/mL and the “MIC E. coli 061” value stood at 8 micrograms/mL. Further, in assay [2], the “MIC K. pneumoniae 062” value is recorded as 128 micrograms/mL, the “MIC K. pneumoniae 063” value is listed as 64 micrograms/mL, the “MIC K. pneumoniae 064” value came out at 8 micrograms/mL and the “MIC K. pneumoniae 655” value was 64 micrograms/mL. Besides, in assay [3], the “MIC P. aeruginosa 065” value is 4 micrograms/mL and the “MIC P. aeruginosa 066” value came to 8 micrograms/mL. In assay [4], the “MIC A. baumannii 053” value is listed as 64 micrograms/mL, the “MIC A. baumannii 056” value was found to be 8 micrograms/mL, the “MIC A. baumannii 068” value is 16 micrograms/mL and the “MIC A. baumannii 070” value is given as 32 micrograms/mL. In addition, in the assay on E. coli (sole activity, Table 6C), the “MIC, E. coli ATCC 25922” value came to 0.06 micrograms/mL and the “MIC, E. coli NCTC 13441” value was found to be 0.125 micrograms/mL. In addition, in the assay with K. pneumoniae (sole activity, Table 6C), the “MIC, K. pneumoniae ATCC 4352” value came to 0.06 micrograms/mL and the “MIC, K. pneumoniae ATCC BAA-2146” value came out at 0.125 micrograms/mL. In the assay with P. aeruginosa (sole activity, Table 6C), the “MIC, P. aeruginosa ATCC 27853” value is recorded as 0.5 micrograms/mL and the “MIC, P. aeruginosa CCUG 59347” value stood at 0.5 micrograms/mL. For the same substance, in the assay with A. baumannii (sole activity, Table 6C), the “MIC, A. baumannii ATCC BAA-747” value is listed as 0.06 micrograms/mL and the “MIC, A. baumannii NCTC 13424” value worked out at 0.125 micrograms/mL.
Turning to “(trans-5- octylpiperidine)-3- carbonyl polymyxin B nonapeptide [Example D23]”, in assay [1], the “MIC E. coli 058” value is recorded as 0.5 micrograms/mL, the “MIC E. coli 059” value amounted to 0.25 micrograms/mL, the “MIC E. coli 060” value was found to be 1 micrograms/mL and the “MIC E. coli 061” value is recorded as 1 micrograms/mL. In assay [2], the “MIC K. pneumoniae 062” value was 4 micrograms/mL, the “MIC K. pneumoniae 063” value stood at 4 micrograms/mL, the “MIC K. pneumoniae 064” value came out at 1 micrograms/mL and the “MIC K. pneumoniae 655” value was determined as 4 micrograms/mL. In addition, in assay [3], the “MIC P. aeruginosa 065” value was 0.5 micrograms/mL, the “MIC P. aeruginosa 066” value stood at 1 micrograms/mL and the “MIC P. aeruginosa 067” value was determined as 8 micrograms/mL. Moreover, in assay [4], the “MIC A. baumannii 053” value is recorded as 2 micrograms/mL, the “MIC A. baumannii 056” value is recorded as 0.5 micrograms/mL, the “MIC A. baumannii 068” value stood at 1 micrograms/mL and the “MIC A. baumannii 070” value is reported as 1 micrograms/mL. Further, the “MIC, E. coli NCTC 13441” value against E. coli (setting [5]) is 1 micrograms/mL. Further, the “MIC, K. pneumoniae ATCC BAA-2146” value in the assay on K. pneumoniae (setting [5]) was 1 micrograms/mL. In the assay on P. aeruginosa (setting [5]), the “MIC, P. aeruginosa ATCC 27853” value was found to be 0.5 micrograms/mL and the “MIC, P. aeruginosa CCUG 59347” value was 0.5 micrograms/mL. Moreover, in the assay with A. baumannii (setting [5]), the “MIC, A. baumannii ATCC BAA-747” value worked out at 0.25 micrograms/mL and the “MIC, A. baumannii NCTC 13424” value was found to be 0.25 micrograms/mL.

These data come from patent US20210221848A1, “POLYMYXIN DERIVATIVES AND THEIR USE IN COMBINATION THERAPY TOGETHER WITH DIFFERENT ANTIBIOTICS” (priority 2014, published 2021).
